# From US11730705B2, “Small molecule CMKLR1 antagonists in inflammatory disease” (The Board of Trustees of the Leland Stanford Junior …, priority 2019, dated 2023)
# Key:
# [1] = 5 μg into the uterine horn on days 6, 9 and 12 following fertilization; cited from earlier work
# [2] = molecular target: Pregnane X receptor (PXR) (Homo sapiens, UniProt O75469); experiment: Cyp induction (PXR luciferase reporter); format: cell-based; conditions: concentrations up to 50 uM
# Protocol: (§1) Pregnane X receptor (PXR) activation was used as a marker of Cyp induction.
# Pregnane X receptor (PXR) activation was used as a marker of Cyp induction. An engineered human hepatoma cell line with a PXR luciferase reporter was incubated with the indicated concentrations of α-NETA, Rifampicin (positive control), or DMSO (negative control), and luciferase activity assessed (Cyprotex/Evotec AG).
# Cyp2D6 = molecular target: T1, Cyp2D6 (Homo sapiens, UniProt P10635); conditions: PubChem BioAssay ID 1461; read-out: Cyp Inhibition IC50 (μM), Cyp2D6; cited from earlier work
# T1 construct: tissue Cyprotex/Evotec AG; host or cells: human liver microsomes
# Cyp2C8 = molecular target: T2, Cyp2C8 (Homo sapiens, UniProt P10632); experiment: Cyp enzyme inhibition, human liver microsomes; format: in vitro ADME; conditions: 30 min pre-incubation
# T2 construct: Human liver microsomes were pre-incubated with 7 concentrations; tissue Cyprotex/Evotec AG; host or cells: human liver microsomes
# T2 sequence (P10632 1-490): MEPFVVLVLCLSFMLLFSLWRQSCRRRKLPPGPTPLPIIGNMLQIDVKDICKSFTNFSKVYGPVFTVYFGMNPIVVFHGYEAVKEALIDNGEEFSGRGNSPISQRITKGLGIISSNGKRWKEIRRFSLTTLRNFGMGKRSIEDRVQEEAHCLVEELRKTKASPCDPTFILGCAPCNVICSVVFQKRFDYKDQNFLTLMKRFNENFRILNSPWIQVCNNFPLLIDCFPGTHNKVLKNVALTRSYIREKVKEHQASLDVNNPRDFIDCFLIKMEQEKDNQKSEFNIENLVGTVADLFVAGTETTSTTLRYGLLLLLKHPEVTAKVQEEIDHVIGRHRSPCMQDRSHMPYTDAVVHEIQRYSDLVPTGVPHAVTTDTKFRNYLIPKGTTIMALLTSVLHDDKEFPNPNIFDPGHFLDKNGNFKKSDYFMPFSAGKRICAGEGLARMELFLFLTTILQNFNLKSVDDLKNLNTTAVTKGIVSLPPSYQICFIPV
# Protocol: (§2) Cyp enzyme inhibition. Human liver microsomes were pre-incubated with 7 concentrations ([…], duplicate wells) of α-NETA for 30 min.
# Cyp2B6 = molecular target: T3, Cyp2B6 (Homo sapiens, UniProt P20813); experiment: Cyp enzyme inhibition, human liver microsomes; format: in vitro ADME; conditions: 30 min pre-incubation
# T3 construct: Human liver microsomes were pre-incubated with 7 concentrations; tissue Cyprotex/Evotec AG; host or cells: human liver microsomes
# T3 sequence (P20813 1-491): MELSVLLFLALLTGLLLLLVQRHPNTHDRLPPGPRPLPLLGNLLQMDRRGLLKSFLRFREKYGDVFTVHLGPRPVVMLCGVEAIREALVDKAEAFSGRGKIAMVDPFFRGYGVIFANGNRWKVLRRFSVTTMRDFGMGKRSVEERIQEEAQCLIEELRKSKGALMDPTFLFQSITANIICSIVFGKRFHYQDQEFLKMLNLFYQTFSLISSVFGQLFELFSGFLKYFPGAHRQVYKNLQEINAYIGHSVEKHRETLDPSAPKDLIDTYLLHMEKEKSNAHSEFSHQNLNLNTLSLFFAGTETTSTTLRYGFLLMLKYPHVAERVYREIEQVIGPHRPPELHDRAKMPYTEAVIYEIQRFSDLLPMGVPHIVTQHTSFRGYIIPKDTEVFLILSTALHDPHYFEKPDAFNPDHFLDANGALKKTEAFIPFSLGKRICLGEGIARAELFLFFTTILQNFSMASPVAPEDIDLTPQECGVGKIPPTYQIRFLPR
# Protocol: as §2
# Cyp2C9 = molecular target: T4, Cyp2C9 (Homo sapiens, UniProt P11712); experiment: Cyp enzyme inhibition, human liver microsomes; format: in vitro ADME; conditions: 30 min pre-incubation
# T4 construct: Human liver microsomes were pre-incubated with 7 concentrations; tissue Cyprotex/Evotec AG; host or cells: human liver microsomes
# Protocol: as §2
# Cyp2C19 = molecular target: T5, Cyp2C19 (Homo sapiens, UniProt P33261); experiment: Cyp enzyme inhibition, human liver microsomes; format: in vitro ADME; conditions: 30 min pre-incubation
# T5 construct: Human liver microsomes were pre-incubated with 7 concentrations; tissue Cyprotex/Evotec AG; host or cells: human liver microsomes
# Protocol: as §2
# hERG = molecular target: T6, hERG (Homo sapiens, UniProt Q12809); experiment: hERG inhibition patch-clamp assay, CHO-hERG cells; format: cell-based; conditions: hERG tail current, preliminary studies
# T6 construct: host or cells: CHO
# Protocol: as §1
# The cell was depolarized, and the hERG tail current was measured, and IC50 determined (Cyprotex/Evotec AG).
# EAE in C57BL/6 mice = experiment: EAE induced by MOG35-55/CFA immunization; format: in vivo, mouse; conditions: FIG. 1C; 10 mg/kg daily; compared with Tecfidera or vehicle control
# Protocol: FIG. 1A-1D. […] (FIG. 1D) The integrated clinical score over time for each animal was calculated as area under the curve (AUC).
# EAE. […] CFA consisted of 5 mg/ml mTB (Mycobacterium-tuberculosis H37 Ra, BD Difco) in IFA (Incomplete Freund's Adjuvant, Sigma). MOG35-55 was reconstituted at 2 mg/ml in PBS. Mice also received 200 ng pertussis toxin (List Biological Laboratories, Inc) by i.p. injection at the time of immunization and two days later. […] For a direct comparison to α-NETA, the DMF and compound doses were also 10 mg/kg in 10% captisol. Mice were monitored daily for clinical disease and scored (0=normal/healthy, 1=limp tail, 2=hindlimb weakness, 3=hindlimb paralysis, 4=hindlimb and forelimb paralysis, 5=moribund/dead).
# T5 sequence (P33261 whole entry): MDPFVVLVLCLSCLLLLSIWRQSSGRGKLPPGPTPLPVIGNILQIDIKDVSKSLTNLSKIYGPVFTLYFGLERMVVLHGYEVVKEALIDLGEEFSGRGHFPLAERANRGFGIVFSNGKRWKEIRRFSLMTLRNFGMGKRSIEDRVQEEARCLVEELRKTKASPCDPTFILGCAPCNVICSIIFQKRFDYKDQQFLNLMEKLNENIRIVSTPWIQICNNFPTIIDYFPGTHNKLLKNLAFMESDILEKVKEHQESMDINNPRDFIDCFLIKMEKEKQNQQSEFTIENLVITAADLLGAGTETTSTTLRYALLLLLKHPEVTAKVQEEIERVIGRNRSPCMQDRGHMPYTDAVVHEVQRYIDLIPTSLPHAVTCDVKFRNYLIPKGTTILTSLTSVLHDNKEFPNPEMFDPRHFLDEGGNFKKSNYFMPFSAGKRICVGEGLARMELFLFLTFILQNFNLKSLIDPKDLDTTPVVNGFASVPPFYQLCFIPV
# T6 sequence (Q12809 whole entry): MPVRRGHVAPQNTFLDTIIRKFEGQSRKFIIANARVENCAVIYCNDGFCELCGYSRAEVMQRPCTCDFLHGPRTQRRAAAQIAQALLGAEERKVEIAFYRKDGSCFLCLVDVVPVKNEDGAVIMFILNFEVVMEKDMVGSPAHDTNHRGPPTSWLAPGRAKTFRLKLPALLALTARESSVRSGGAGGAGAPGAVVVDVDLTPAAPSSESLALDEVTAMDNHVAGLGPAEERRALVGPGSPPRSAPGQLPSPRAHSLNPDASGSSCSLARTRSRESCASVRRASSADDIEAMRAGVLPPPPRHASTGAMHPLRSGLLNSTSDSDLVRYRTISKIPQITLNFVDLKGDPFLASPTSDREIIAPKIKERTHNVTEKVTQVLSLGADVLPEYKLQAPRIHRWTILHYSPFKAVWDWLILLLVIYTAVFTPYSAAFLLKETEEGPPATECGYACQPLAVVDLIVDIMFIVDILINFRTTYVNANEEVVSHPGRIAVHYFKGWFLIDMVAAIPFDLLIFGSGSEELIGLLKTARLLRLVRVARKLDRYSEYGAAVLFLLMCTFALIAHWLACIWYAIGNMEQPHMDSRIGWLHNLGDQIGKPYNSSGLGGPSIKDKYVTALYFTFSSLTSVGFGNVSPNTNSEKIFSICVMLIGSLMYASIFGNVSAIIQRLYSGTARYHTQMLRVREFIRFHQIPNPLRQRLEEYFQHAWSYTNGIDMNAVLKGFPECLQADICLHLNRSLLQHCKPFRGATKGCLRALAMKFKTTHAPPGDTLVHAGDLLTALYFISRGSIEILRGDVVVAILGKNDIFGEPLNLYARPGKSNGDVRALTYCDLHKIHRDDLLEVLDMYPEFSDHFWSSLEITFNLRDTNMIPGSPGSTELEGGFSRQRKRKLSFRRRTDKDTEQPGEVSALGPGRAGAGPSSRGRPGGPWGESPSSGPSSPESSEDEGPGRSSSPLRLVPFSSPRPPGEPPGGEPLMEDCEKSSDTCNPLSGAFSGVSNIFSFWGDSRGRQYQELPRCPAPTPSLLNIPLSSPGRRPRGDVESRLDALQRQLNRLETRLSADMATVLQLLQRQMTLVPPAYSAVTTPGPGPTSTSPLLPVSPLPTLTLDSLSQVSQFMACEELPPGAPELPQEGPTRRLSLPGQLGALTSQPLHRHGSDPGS
# Sequence of Pregnane X receptor (PXR) (O75469 whole entry): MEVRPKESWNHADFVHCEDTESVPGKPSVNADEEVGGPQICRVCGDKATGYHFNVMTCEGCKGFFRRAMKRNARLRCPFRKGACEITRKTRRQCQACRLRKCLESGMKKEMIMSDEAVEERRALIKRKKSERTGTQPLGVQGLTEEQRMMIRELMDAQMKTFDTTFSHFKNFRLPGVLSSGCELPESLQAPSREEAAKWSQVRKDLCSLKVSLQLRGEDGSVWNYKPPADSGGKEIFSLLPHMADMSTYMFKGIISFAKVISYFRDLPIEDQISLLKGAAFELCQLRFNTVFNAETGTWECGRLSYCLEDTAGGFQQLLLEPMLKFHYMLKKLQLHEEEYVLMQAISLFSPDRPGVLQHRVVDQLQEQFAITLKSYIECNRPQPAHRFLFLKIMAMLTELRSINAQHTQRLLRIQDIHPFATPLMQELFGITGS
# T4 sequence (P11712 whole entry): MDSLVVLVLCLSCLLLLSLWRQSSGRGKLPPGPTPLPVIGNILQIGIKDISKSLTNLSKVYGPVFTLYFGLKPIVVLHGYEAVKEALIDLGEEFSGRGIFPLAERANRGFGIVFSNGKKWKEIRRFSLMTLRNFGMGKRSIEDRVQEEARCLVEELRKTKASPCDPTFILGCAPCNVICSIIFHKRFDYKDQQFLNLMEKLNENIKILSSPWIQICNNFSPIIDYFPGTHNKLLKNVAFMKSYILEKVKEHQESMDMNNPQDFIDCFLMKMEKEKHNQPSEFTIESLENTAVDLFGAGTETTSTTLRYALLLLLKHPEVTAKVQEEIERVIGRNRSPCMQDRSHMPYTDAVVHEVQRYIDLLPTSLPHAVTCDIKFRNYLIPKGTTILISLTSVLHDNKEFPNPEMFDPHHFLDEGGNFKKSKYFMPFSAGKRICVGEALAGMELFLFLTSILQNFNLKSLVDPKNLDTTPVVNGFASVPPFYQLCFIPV
# T1 sequence (P10635 whole entry): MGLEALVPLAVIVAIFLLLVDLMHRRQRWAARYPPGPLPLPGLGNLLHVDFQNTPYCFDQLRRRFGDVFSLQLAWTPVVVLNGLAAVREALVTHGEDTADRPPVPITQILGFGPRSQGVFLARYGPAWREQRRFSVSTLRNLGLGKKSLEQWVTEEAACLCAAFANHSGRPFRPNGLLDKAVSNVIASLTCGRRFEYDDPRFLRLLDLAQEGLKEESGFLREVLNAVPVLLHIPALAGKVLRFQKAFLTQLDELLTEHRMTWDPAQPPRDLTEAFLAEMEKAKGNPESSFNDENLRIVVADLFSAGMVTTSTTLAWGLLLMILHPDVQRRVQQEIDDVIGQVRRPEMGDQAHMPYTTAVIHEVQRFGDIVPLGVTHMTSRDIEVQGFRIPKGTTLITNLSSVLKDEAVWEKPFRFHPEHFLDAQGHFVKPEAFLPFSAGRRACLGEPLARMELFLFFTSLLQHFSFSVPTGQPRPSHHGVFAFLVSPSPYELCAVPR
smiles,measurement,setting,value
"C[N+](C)(C)CCC(=O)c1cccc2ccccc12.[I-] [α-NETA, 2-(α-naphthoyl) ethyltrimethylammonium iodide]",embryo resorption,[1],significant embryo resorption
same,PXR activation (marker of Cyp induction),[2],did not induce substantial PXR activity
same,IC50,Cyp2D6,> 10 µM
same,IC50,Cyp2C8,1.5 µM
same,IC50,Cyp2B6,0.12 µM
same,IC50,Cyp2C9,14.6 µM
same,IC50,Cyp2C19,84 µM
same,IC50,hERG,> 10 µM
same,severity of clinical EAE,EAE in C57BL/6 mice,significantly suppressed
